Measurements as given in patent US8779151B2, “Orally bioavailable caffeic acid related anticancer drugs” (The Board of Regents of the University of Texas System, priority 2006, dated 2014).
pIC50: −log10 of the molar value.

Legend:
[1] = tested on: constitutively activated STAT3 in Colo357-FG cells; experiment: Western blot of phosphorylated STAT3 (Tyr705) and total STAT3 in Colo357-FG cells (FIG. 1); assay type: cell-based, human
Description: Cultured pancreatic cancer cells treated with different times and concentrations of WP compounds or DMSO (solvent) were lysed in lysis buffer and equal amounts of protein extracts were fractionated by sodium dodecyl sulfate polyacrylamide gel electrophoresis and transferred to Hybond-P membranes. Membranes were immuno-blotted using phospho-specific STAT3, total STAT3, Bcl-xL, survivin, PARP, caspase-8 and GADPH antibodies. The primary antibodies were visualized with goat anti-rabbit or goat anti-mouse peroxidase-conjugated antibodies using an enhanced […] (ECF) system and a Molecular Dynamics Storm PhosphorImager.

STAT3 = experiment: Inhibition of STAT3 phosphorylation, WP1193 compared with WP1066 (FIG. 34); assay type: cell-based
U373-MG cells = details: cited from earlier work
U87-MG cells = details: cited from earlier work
[2] = tested on: subcutaneous malignant glioma xenografts; details: cited from earlier work
[3] = tested on: human malignant glioma U87-MG and U373-MG cells; details: cited from earlier work

| Structure (SMILES) | inhibition of constitutively activated STAT3 (phospho-Tyr705 versus total STAT3) [1] | inhibition of STAT3 phosphorylation relative to WP1066 (STAT3) | pIC50 (U373-MG cells) | increase in potency over that of AG490 (U373-MG cells; versus AG490) | pIC50 (U87-MG cells) | increase in potency over that of AG490 (U87-MG cells; versus AG490) | phosphorylated STAT3 levels in excised tumors (immunohistochemical analysis) ([2]; 3 weeks after the final WP1066 injection, versus control group) | growth of subcutaneous malignant glioma xenografts ([2]; mice, systemic intraperitoneal administration, 30-day follow-up period) | Bax, c-myc, Bcl-XL, Mcl-1 and apoptosis [3] |
| --- | --- | --- | --- | --- | --- | --- | --- | --- | --- |
| N#C/C(=C\c1cccc(Br)n1)C(=O)N[C@H](c1ccccc1)C1CC1 [WP1193, (E)-3-(6-bromopyridin-2-yl)-2-cyano-N-((S)-cyclopropyl(phenyl)methyl)acrylamide] | Inhibition of constitutively activated STAT3 | more potently than WP1066 |  |  |  |  |  |  |  |
| C[C@H](NC(=O)/C(C#N)=C/c1cccc(Br)n1)c1ccccc1 [WP1066] | Inhibition of constitutively activated STAT3 |  | 5.43 | eightfold | 5.25 | 18 fold | remained inhibited | significantly (P<0.001) inhibited the growth | activated Bax, suppressed the expression of c-myc, Bcl-XL and Mcl-1, and induced apoptosis |
